According to US6495585B2, “Method for treating hyperproliferative tissue in a mammal” (Health Research, Inc., priority 2001, dated 2002):

Key:
[1] = system: natural killer cell activity; conditions: spleen and other tissues; cited from earlier work
tumor cell lines = conditions: cited from earlier work
tumor blood flow = conditions: in vivo; cited from earlier work
Colon 38 tumors = conditions: compared with FAA; cited from earlier work
TNF-α = conditions: cited from earlier work
[2] = system: cultured human and murine cells; conditions: cited from earlier work
implanted murine tumors = conditions: compared with FAA; cited from earlier work
RIF-1 tumors = system: RIF-1 tumors
Protocol: The drawings illustrate the responses of RIF-1 tumors to either PDT (FIG. 2a) or DMXAA (FIG. 2b). Dose response data are shown in the form of Kaplan-Meier ‘survival’ plots, where the percent of RIF-1 tumors with volumes less than […] are plotted against time from treatment. Tumor volumes at the time of treatment were 50-70 mg (approximately […] of the mouse body mass).
In pilot studies of PDT plus adjuvant DMXAA only low doses of each modality were chosen. […] 23 hours, 20 mg DMXAA/kg. 2 hours, 135 J/cm^263-nm laser light. Control tumors (no drug, no light) are shown as solid black squares; DMXAA are shown as open circles; PDT alone as gray circles.
The symbols in the graph are the same as for FIG. 3.

O=C(O)Cc1cccc2c(=O)cc(-c3ccccc3)oc12 [FAA, Flavone-8-acetic acid]
natural killer cell activity [1]: induces natural killer cell activity
in vitro activity against tumor cell lines (tumor cell lines): shows in vitro activity against a number of tumor cell lines
effect on tumor blood flow (tumor blood flow): causes reduction in tumor blood flow

O=C(O)Cc1cccc2c(=O)c3ccccc3oc12 [XAA, Xanthenone-4-acetic acid]
efficiency in eliminating Colon 38 tumors (Colon 38 tumors): more efficient than FAA

Cc1ccc2c(=O)c3cccc(CC(=O)O)c3oc2c1C [DMXAA, 5,6-Dimethylxanthenone-4-acetic acid]
cytokine induction (TNF-α): induce TNF-α along with IFN-γ
in vitro activity [2]: active in vitro
dose potency against implanted murine tumors (implanted murine tumors): considerably greater dose potencies than FAA
tumor control (percent of RIF-1 tumors with volumes less than 400 mm vs time from treatment) (RIF-1 tumors; administered alone, Kaplan-Meier plots, FIG. 2a/2b): control tumors in a dose-dependent manner
toxicity of most effective doses (RIF-1 tumors; mouse, in vivo): most effective doses are at or near the treatment toxic limits
